For test [1], the target named is NAMPT (Homo sapiens, UniProt P43490). Conditions: in vitro; Wang et al. (2014) Cell; cited from earlier work.
Test [2] in a line: Body weight after doxorubicin. In kind it is in vivo, male C57BL6 mice. Conditions: doxorubicin 10 mg/kg i.p. + apigenin 500 mg/kg of diet from 8 days before. The method, then:
Vehicle control: 10% DMSO in PBS administered intraperitoneally; • 2. Apigenin: administered in diet at 500 mg/kg of diet, in addition to vehicle control administered i.p.; • 3. […] Apigenin administered in diet of 500 mg/kg of diet, and doxorubicin administered at 10 mg/kg body weight i.p. Apigenin was administered 8 days prior to administration of a single dose of doxorubicin. Body weight was assessed during the course of the experiment as a read-out of general health and malaise, the results of which are shown in FIG. 11.

The nature of test [3]: Body weight after whole body γ-irradiation. Type of test: in vivo, female C57BL6 mice. Conditions: 500cGy whole body γ-irradiation; apigenin 500 mg/kg feed; 20 days post-irradiation. As for the experimental part: In order to assess the affects of an NAD^+ agonist on the effects of radiation, female C57BL6 (3-4 months old) were exposed to a single dose (500cGy) of whole body γ-irradiation or no irradiation (control). Mice were then maintained on chow diet with or without the addition of the NAD^+ raising compound apigenin to diet (500 mg/kg feed). The weight of the mice was determined at various time points for 20 days post-irradiation.

For test [4], the system named is p16^INK4A. As to the kind of experiment: Doxorubicin-induced senescence in p16^LUC mice, bioluminescence/CT imaging. The following applies: doxorubicin 1 mg/kg i.p. + apigenin 500 mg/kg of food from 4 days before; vs doxorubicin alone. In kind it is in vivo. As for the experimental part:
Vehicle control: 10% DMSO in PBS administered intraperitoneally; • 2. Apigenin: administered in diet at 500 mg/kg of food in addition to vehicle control administered i.p.; • 3. […] Apigenin administered in chow diet at 500 mg/kg of food, and doxorubicin administered at 1 mg/kg body weight i.p. Apigenin was administered 4 days prior to administration of doxorubicin. The animals were subjected to bioluminescence/CT imaging (Spectrum-CT instrument, PerkinElmer) as a readout for senescence 24 hours after treatment was completed. Areas of luminescence are shown as lightened areas in FIG. 5 and are indicated by an arrow.

Test [5] relates to C2C12 myoblasts. As to the kind of experiment: SA-β-Gal staining of C2C12 myoblasts incubated with various agents. Type of test: cell-based. As for the experimental part: The ability of NAD^+ agonists to reduce senescence associated with various agents was tested by inclubating C2C12 myoblasts with various agents in the presence or absence of NMN or apigenin, and the cells subsequent stained as mentioned above for SA-β-Gal activity. The following agents were tested: [table]

Test [6] has as its target T1, CD38 (Homo sapiens, UniProt P28907).
T1 sequence (P28907 1-300): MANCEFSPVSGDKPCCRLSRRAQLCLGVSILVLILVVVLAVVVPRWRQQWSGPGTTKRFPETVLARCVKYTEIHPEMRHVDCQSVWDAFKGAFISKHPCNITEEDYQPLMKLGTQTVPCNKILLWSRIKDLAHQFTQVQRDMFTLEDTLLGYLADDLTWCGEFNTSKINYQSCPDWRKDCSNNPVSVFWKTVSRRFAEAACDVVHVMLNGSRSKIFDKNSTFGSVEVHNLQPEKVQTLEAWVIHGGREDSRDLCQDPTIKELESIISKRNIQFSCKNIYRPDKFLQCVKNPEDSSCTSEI
The following applies: in vitro; Esande et al. (2013) Diabetes; cited from earlier work.

Test [7] relates to 3T3-L1 adipocytes. The test is described as follows: SA-β-gal chromogenic staining of dexamethasone treated 3T3-L1 adipocytes. Type of test: cell-based. The following applies: 5 days; dexamethasone 1, 0.5, 0.1 or 0.01 mg/ml; 1 mM NMN, 25 mM apigenin. As for the experimental part: To further investigate the effects of NAD^+ agonists on dexamethasone induced senescence, 3T3-L1 adipocytes were treated for 5 days with ethanol (control), or 1 mg/ml, 0.5 mg/ml, 0.1 mg/ml or 0.01 mg/ml of dexamethasone in combination with either DMSA, 1 mM NMN, 25 mM apigenin, or 1 mM NMN and 25 mM apigenin and subjected to senescence associated beta-galactosidase staining according to the chromogenic protocol of Debacq-Chainiaux F et al Nature Protocols 2009.

In test [8] the test system is senescence associated β-galactosidase. As to the kind of experiment: Senescence associated β-galactosidase staining of epididymal adipose tissue whole mounts. In kind it is in vivo, C57BL6 mice. As for the experimental part:
18 month old C57BL6 mice were treated with or without […] intraperitoneal apigenin for 7 days. Epidydimal adipose tissue whole mounts were obtained from the mice and stained for expression of senescence associated β-galactosidase according to the chromogenic protocol of Debacq-Chainiaux F et al., Protocols to Detect Senescence-associated beta-galactosidase (SA-betagal) activity, a biomarker of senescent cells in culture and in vivo, Nature Protocols 2009; 4(12): 1798-1806. Cells that have undergone cellular senescence express β-galactosidase and stain blue (which can be seen as a darker grey in FIG. 1A).

Test [9] relates to C2C12 myoblasts. The test is described as follows: SA-β-Gal activity in C2C12 myoblasts by flow cytometry with C12FDG. Type of test: cell-based. The method, then:
To determine the ability of NAD^+ agonists to prevent or reduce senescence associated with treatment with corticoids, C2C12 myoblasts were assayed for SA-β-Gal activity following contact with vehicle, NMN, apigenin, dexamethasone, dexamethasone and NMN, and dexamethasone and apigenin. SA-β-Gal activity was determined using the fluorogenic substrate, C12FDG, by flow cytometry (protocol of Debacq-Chainiaux et al. Nature Protocols 2009). FIG. 7A: […] FIGS. 7B and 7C: […] SA-β-Gal activity was decreased with NMN and/or apigenin. All data are presented as the mean value. * p<0.05, **** p<0.0001, using two-way ANOVA multiple comparisons test.
On the technique in general: Flow cytometry measures light scatter and fluorescence of single cells or particles in a stream.

The subject of test [10] is 3T3-L1 adipocytes. The test is described as follows: Intracellular lipid content (oil red o) of 3T3-L1 adipocytes treated with antiretroviral agents. The following applies: apigenin 25 μM; cells treated 24 hr with 30 μM AZT, Efavirenz, Lopinavir, Ritonavir. The method, then:
The ability of NAD^+ agonists to reduce or prevent lipodystrophy associated with anti-retroviral compounds was assessed. The ability of NMN to prevent or reduce lipodystrophy was tested by determining the lipid content of 3T3-L1 adipocytes treated with a vehicle, or the antiretroviral agent stavudine, either alone or in combination with NMN.
3T3-L1 adipocytes were treated for 24 hr with the HIV antiretroviral compound stavudine (10 nM) in the presence or absence of NMN (1 mM). Intracellular lipid content was assessed using oil red o staining, which was quantified by reading absorbance at 544 nm. Error bars: SD.
In order to further test the ability of NAD^+ agonists to reduce lipodystrophy associated with antiretroviral agents, 3T3-L1 adipocytes were treated for 24 hr with various antiretroviral compounds (30 μM) in the presence or absence of NMN (1 mM) or apigenin (25 μM). Intracellular lipid content was assessed using oil red o staining, which was quantified by reading absorbance at 544 nm.

Test [11] concerns senescence associated secretory proteins and cell cycle markers (mRNA). The test is described as follows: Quantitative RTPCR of senescence marker mRNA in epidymal adipose tissue. Conditions: chow or high fat feed supplemented with 500 mg/kg apigenin. Type of test: in vivo, C57BL6 mice. The method, then:
C57BL6 mice were fed chow, chow supplemented with 500 mg/kg apigenin, high fat feed or high fat feed supplemented with 500 mg/kg apigenin for 6 months. At 6 months, mRNA expression levels of senescence associated secretory proteins was determined in epidymal adipose tissue using quantitative RTPCR. At 12 months, mRNA expression levels of cell cycle markers was determined in epidymal adipose tissue using quantitative RTPCR.

Structures are written as SMILES. Entries after “also recorded” stand apart in the source; their conditions may differ.

Chain of NAMPT (P43490 whole entry, species assumed): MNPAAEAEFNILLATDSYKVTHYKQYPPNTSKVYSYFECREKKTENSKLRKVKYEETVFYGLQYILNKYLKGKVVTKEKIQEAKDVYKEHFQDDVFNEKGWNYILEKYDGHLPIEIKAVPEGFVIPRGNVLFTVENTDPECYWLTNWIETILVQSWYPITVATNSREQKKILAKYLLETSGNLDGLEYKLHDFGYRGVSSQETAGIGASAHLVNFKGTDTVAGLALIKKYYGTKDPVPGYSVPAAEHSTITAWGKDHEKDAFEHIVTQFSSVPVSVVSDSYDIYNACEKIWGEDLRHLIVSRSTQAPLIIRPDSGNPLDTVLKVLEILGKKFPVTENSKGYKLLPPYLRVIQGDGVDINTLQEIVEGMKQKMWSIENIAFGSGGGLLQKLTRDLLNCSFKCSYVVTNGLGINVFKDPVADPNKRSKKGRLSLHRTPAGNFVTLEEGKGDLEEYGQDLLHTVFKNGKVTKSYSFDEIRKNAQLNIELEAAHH

For the compound `OC(CNc1ccccc1)Cn1c2ccc(Br)cc2c2cc(Br)ccc21` (stereo not drawn) [P7C3], the “activity of NAMPT” value in test [1] was “enhances activity of NAMPT in vitro”.

As for `O=c1cc(-c2ccc(O)cc2)oc2cc(O)cc(O)c12` [apigenin, 5,7-dihydroxy-2-(4-hydroxyphenyl)-4H-1-benzopyran-4-one], the body weight result in test [2] is listed as “rescue in body weight to a degree similar to non-doxorubicin treated animals”. For the same compound, in test [3], the “body weight after irradiation” value was “prevented this weight loss”. For the same compound, in test [4], the “p16^INK4A induction (bioluminescence)” value is listed as “little or no signs of p16^INK4A induction”. In addition, the “extent of senescence (proportion of cells stained blue, SA-β-Gal activity)” value in [5] (agents of the table of b212 with vs without apigenin or NMN) is reported as “reduce the extent of senescence induced by the agents tested”. For the same compound, the “extent to which the cells undergo senescence” value is given as “reduces the extent to which the cells undergo senescence” in test [5] (co-administration with AZT, 3TC, zalcitabine, efavirenze, lopinavir, ritonavir, nevirapine, tipranavir, tenofovir, invirase vs agent alone); “reduces the extent to which the cells undergo senescence” in [5] (co-administration with PPARγ agonist rosiglitazone vs rosiglitazone alone); “reduces the extent to which the cells undergo senescence” in test [5] (co-administration with antiprotozoal agent quinacrine vs quinacrine alone); “reduces the extent to which the cells undergo senescence” in [5] (co-administration with each of the chemotherapeutic agents listed in b109 vs agent alone); “reduces the extent to which the cells undergo senescence” in test [5] (co-administration with xanthine oxidase inhibitor allopurinol vs allopurinol alone); “reduces the extent to which the cells undergo senescence” in test [5] (co-administration with zolendronate vs zolendronate alone). Also, in [6], the “inhibition of CD38 activity” value is “inhibitors of CD38 activity in vitro”. For the same compound, in test [7], the “SA-β-gal staining (blue cells), dexamethasone induced senescence” value is recorded as “reduce or prevent senescence induced by dexamethasone”. Besides, the “SA-β-gal staining of adipose tissue (FIG. 1B)” value in [8] (3 and 18 month old mice fed chow or chow supplemented with apigenin) is “little or no staining”. Further, the “senescence associated β-galactosidase staining of adipose tissue (FIG. 1A)” value in [8] (18 month old mice, 100 mg/day intraperitoneal apigenin for 7 days / chow supplemented daily with 100 mg/kg apigenin, vs chow fed control, 100 mg/kg) was “less compared to chow fed mice; also recorded: significantly less senescence-associated β-galactosidase expression”. Besides, the “SA-β-Gal activity (FIG. 7B)” value in test [9] (72 hours, dexamethasone sodium phosphate 250 nM or PBS, NMN 1 mM or apigenin 25 uM) is listed as “decreased”. Moreover, the “SA-β-Gal activity (FIG. 7C)” value in [9] (96 hours, dexamethasone sodium phosphate 250 nM or PBS, NMN 1 mM or apigenin 25 uM) was “decreased”. Further, the “percentage of cells which exhibited SA-β-Gal activity following treatment with dexamethasone” value in test [9] (summary of FIGS. 7A-7C) is reported as “reduced the percentage of cells which exhibited SA-β-Gal activity”. Besides, in test [10], the “lipodystrophy (intracellular lipid content, oil red o)” value is listed as “reduced lipodystrophy”. In test [11] (6 months), the “mRNA expression of senescence associated secretory proteins (FIG. 2)” value is “significant reduction in expression of senescence markers”. For the same compound, the “mRNA expression of cell cycle markers (FIG. 3)” value in test [11] (12 months) is reported as “significant reduction in expression of senescence markers”.

Source of the values: patent US20240108645A1, “SENESCENCE AND SENESCENCE ASSOCIATED SECRETORY PHENOTYPE” (Metro Biotech NSW Pty Ltd, priority 2013, published 2024).
